Results: patent US20250195530A1, “POLQ INHIBITORS” (ASTRAZENECA AB, priority 2022, published 2025)
Like-named read-outs stand apart in the source and are kept apart here. Values belong to the compound of their own block, whether it stands above or below them.

Experiments:
DLD-1 BRCA2−/− cells = assay: Homologous recombination synthetic lethal inhibition of proliferation, DLD-1 BRCA2-/- (Cell Titre Glo 3D); format: cell-based; conditions: Homo sapiens
Summary of the method: (§1)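 Cells are seeded in RPMI 1640 (phenol red free, 10% FBS, GlutaMAX) onto pre-dosed compound (10 μM to 0.51 nM, three-fold). Plates are incubated at 37 °C, and medium plus compound are refreshed on day 6. Viability is read by CellTiter-Glo 3D at day 7 (DLD-1) or day 12 (DLD-1 BRCA2−/−), and the IC50 is fitted.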

DLD-1 cells = assay: Inhibition of proliferation, DLD-1 BRCA2 wt control (Cell Titre Glo 3D); format: cell-based; conditions: Homo sapiens
Summary of the method: as §1

[1] = DLD-1, first proliferation column (c5), DLD-1 BRCA2-/-, read-out: POLQ PD Prolif Lumin (converted)
[2] = DLD-1, second proliferation column (c6), DLD-1 BRCA2 wt control, read-out: POLQ PD Prolif Lumin (converted)

Structure (SMILES): CC1(Oc2ncnc3c2nc(-c2ccc(OCCN4CCNCC4)cc2Cl)n3Cc2cnc(Cl)s2)CC1 [Example T146, 2-chloro-5-((8-(2-chloro-4-(2-(piperazin-1-yl)ethoxy)phenyl)-6-(1-methylcyclopropoxy)-9H-purin-9-yl)methyl)thiazole]
IC50 (DLD-1 BRCA2−/− cells; [1]): 1260 nM
IC50 (DLD-1 cells; [2]): > 10 µM

Structure (SMILES): CC1(Oc2ncnc3c2nc(-c2ccc(OCCCCC(=O)O)cc2Cl)n3Cc2cccc(Cl)c2)CC1 [Example 43, 5-(3-Chloro-4-(9-(3-chlorobenzyl)-6-(1-methylcyclopropoxy)-9H-purin-8-yl)phenoxy)pentanoic acid]
IC50 (DLD-1 BRCA2−/− cells; DLD-1, 288 h, DLD-1 BRCA2−/−, 12 days, Cell Titre Glo 3D, read-out: POLQ PD Prolif Lumin BRCA2 −/− Mean pIC50 (converted)): 79.4 nM
IC50 (DLD-1 cells; DLD-1, 168 h, DLD-1 (BRCA2 wt control), 7 days, Cell Titre Glo 3D, read-out: POLQ PD Prolif Lumin DLD1 Mean pIC50 (converted)): > 10 µM

Structure (SMILES): CC1(Oc2ncnc3c2nc(-c2ccc(OCCN4CC(O)C4)cc2Cl)n3Cc2cc(C(F)(F)F)ccn2)CC1 [Example T284, 1-(2-(3-chloro-4-(6-(1-methylcyclopropoxy)-9-((4-(trifluoromethyl)pyridin-2-yl)methyl)-9H-purin-8-yl)phenoxy)ethyl)azetidin-3-ol]
IC50 (DLD-1 BRCA2−/− cells; DLD-1, DLD-1 BRCA2-/- proliferation, column head only partly shown, read-out: POLQ PD Prolif Lumin (converted)): 501 nM
IC50 (DLD-1 cells; DLD-1, DLD-1 BRCA2 wt control proliferation, column head only partly shown, read-out: POLQ PD Prolif Lumin (converted)): > 10 µM

Continued, in another order:

IC50 (DLD-1 cells; [2]): > 10 µM
Structure (SMILES): Cc1ccnc(Cn2c(-c3ccc(N4CCNC4=O)cc3Cl)nc3c(OC4(C)CC4)ncnc32)c1 [Example T107, 1-(3-chloro-4-(6-(1-methylcyclopropoxy)-9-((4-methylpyridin-2-yl)methyl)-9H-purin-8-yl)phenyl)imidazolidin-2-one]
IC50 (DLD-1 BRCA2−/− cells; [1]): 398 nM

IC50 (DLD-1 cells; DLD-1, second proliferation column (c6), taken as DLD-1 BRCA2 wt, read-out: POLQ PD Prolif Lumin (converted)): > 10 µM
Structure (SMILES): CC1(Oc2ncnc3c2nc(-c2ccc(OCCN4CCNCC4)cc2Br)n3Cc2cc(Cl)ccn2)CC1 [Example T348, 8-(2-bromo-4-(2-(piperazin-1-yl)ethoxy)phenyl)-9-((4-chloropyridin-2-yl)methyl)-6-(1-methylcyclopropoxy)-9H-purine]
IC50 (DLD-1 BRCA2−/− cells; DLD-1, first proliferation column (c5), taken as DLD-1 BRCA2-/-, read-out: POLQ PD Prolif Lumin (converted)): 126 nM

IC50 (DLD-1 cells; DLD-1, proliferation, luminescence, second Prolif column (c6), taken as DLD-1 BRCA2 wt control, read-out: POLQ PD Prolif Lumin (converted)): > 10 µM
Structure (SMILES): Cc1ccnc(Cn2c(-c3ccc(C(=O)N4CC5(CCN5)C4)cc3Cl)nc3c(OC4(C)CC4)ncnc32)c1 [Example T429, (3-chloro-4-(6-(1-methylcyclopropoxy)-9-((4-methylpyridin-2-yl)methyl)-9H-purin-8-yl)phenyl)(1,6-diazaspiro[3.3]heptan-6-yl)methanone]
IC50 (DLD-1 BRCA2−/− cells; DLD-1, proliferation, luminescence, taken as DLD-1 BRCA2-/-, read-out: POLQ PD Prolif Lumin (converted)): 1260 nM
